In US6632838B1, “Use of bissulfonamides for producing medicines for the treatment of hyperlipidemia” (Aventis Pharma Deutschland GmbH, priority 1999, dated 2003):

Tests used:
[1] = system: human LDL receptor gene promoter coupled to firefly luciferase reporter gene in Hep-G2 cell line; test: In vitro determination of LDL receptor induction using the luciferase assay; format: cell-based; settings: luminescence, DMSO control=100%
Protocol: 1) In Vitro Determination of LDL Receptor Induction Using the Luciferase Assay
LDL-receptor induction is determined using the luciferase assay as follows. A regulatory DNA fragment (4 kb) of the human LDL receptor gene containing the complete promoter region is coupled to the firefly luciferase reporter gene and stably transfixed into a Hep-G2 cell line. Cells from this line were seeded out on collagen-coated 96-well plates in MEM (minimum essential medium). After 24 hours in culture, the test substances, dissolved in DMSO, were added in final concentrations of 10 nM to 10 μM (final DMSO concentration=2%). The substances were incubated for 12-18 hours overnight (4 wells/conc. in each case), then D-luciferin was added as substrate for the luciferase, and the luminescence was measured. The measured luminescence as a percentage of the control (control=100%) incubated only with DMSO indicates the extent of the relative LDL receptor induction (Table 2).
Further details of the method are described in Current Protocols in Molecular Biology, F. M. Ausubel, R. Brent, R. E. Kingston, D. D. Moore, J. G. Seidman, J. A. Smith, and K. Struhl, eds., J. Wiley and Sons Inc., U.S.A.

[2] = system: hyperlipemic hamsters (plasma lipid level); test: In vivo reduction in LDL cholesterol / plasma lipid level in hyperlipemic hamsters; design: species or system Syrian hamster; settings: vs placebo-treated control
Excerpt: In Vivo Determination of Reduction in LDL Cholesterol in the Hamster; Cholesterol-lowering Effect of LDL Receptor Inducers in Hyperlipemic Hamsters
In this animal experiment, the effect of LDL receptor inducers after bolus adiminstration to hamsters on a lipid-rich diet was investigated.
The experimental animals used were male Syrian hamsters (Charles River) with an average body weight of 100 to 120 g at the start of adaption. The animals were divided into groups (n=6) on the basis of the body weight. Severe hyperlipidemia was induced by feeding with a diet supplemented with 15% butter and 3% cholesterol. The treatment started after preliminary feeding for 2 weeks. The test substances were administered orally by gavage once a day over a period of 10 days. The plasma lipid level was analyzed after 10 days.

[3] = 20 mg/kg p.o. once a day for ten days
[4] = 40 mg/kg p.o. once a day for ten days

| SMILES | LDL receptor induction (% of control) ([1]; 1.5 μM) | LDL receptor induction (% of control) ([1]; 4 μM) | LDL receptor induction (% of control) ([1]; 0.15 μM) | other results |
| --- | --- | --- | --- | --- |
| CN1CCN(c2cc(NCc3ccccc3)c(S(=O)(=O)NC3CCCCC3)cc2S(=O)(=O)NC2CCCCC2)CC1 [Example 2] | 155% | 227% | – | – |
| CN1CCN(c2cc(N3CCN(C)CC3)c(S(=O)(=O)N(C)Cc3ccccc3)cc2S(=O)(=O)N(C)Cc2ccccc2)CC1 [Example 3] | 414% | – | 184% | – |
| CN1CCN(c2cc(NCc3ccccc3)c(S(=O)(=O)N3CCCC3)cc2S(=O)(=O)N2CCCC2)CC1 [Example 5] | – | 240% (4 μM) | – | – |
| CN1CCN(c2cc(N3CCN(C)CC3)c(S(=O)(=O)N3CCCCC3)cc2S(=O)(=O)N2CCCCC2)CC1 [Example 8] | – | 190% (4 μM) | – | – |
| CN1CCN(c2cc(NCc3ccccc3)c(S(=O)(=O)N(C)c3ccccc3)cc2S(=O)(=O)N(C)c2ccccc2)CC1 [Example 9] | 402% | – | 244% | – |
| CN1CCN(c2cc(NCc3ccccn3)c(S(=O)(=O)N(C)c3ccccc3)cc2S(=O)(=O)N(C)c2ccccc2)CC1 [Example 10] | – | 270% | 144% | – |
| CC(C)CNS(=O)(=O)c1cc(S(=O)(=O)NCC(C)C)c(N2CCN(C)CC2)cc1NCc1ccccc1 [Example 12] | 244% (1.5 μM) | – | – | – |
| CN1CCN(c2cc(NCCCc3ccccc3)c(S(=O)(=O)N3CCOCC3)cc2S(=O)(=O)N2CCOCC2)CC1 [Example 15] | 243% | – | 137% | – |
| CCN(CC)S(=O)(=O)c1cc(S(=O)(=O)N(CC)CC)c(N2CCN(C)CC2)cc1NCc1ccccc1 [Example 16] | 214% (1.5 μM) | – | – | – |
| CN1CCN(c2cc(NCCCc3ccccc3)c(S(=O)(=O)N(C)c3ccccc3)cc2S(=O)(=O)N(C)c2ccccc2)CC1 [Example 25] | 189% | – | 168% | – |
| CN1CCN(c2cc(NCCCc3ccccc3)c(S(=O)(=O)N3CCCC3)cc2S(=O)(=O)N2CCCC2)CC1 [Example 26] | 206% | – | 146% | – |
| CN(c1ccccc1)S(=O)(=O)c1cc(S(=O)(=O)N(C)c2ccccc2)c(N2CCNCC2)cc1NCc1ccccn1 [Example 46] | 223% | – | 152% | – |
| CCN(CCN(C)C)S(=O)(=O)c1cc(S(=O)(=O)N(CC)CCN(C)C)c(N2CCN(C)CC2)cc1N(C)Cc1ccccc1 [Example 61] | – | 190% (4 μM) | – | – |
| CCN(CCN(C)C)c1cc(N2CCN(c3ccccc3)CC2)c(S(=O)(=O)N2CCCCC2)cc1S(=O)(=O)N1CCCCC1 [Example 64, N-Ethyl-N′,N′-dimethyl-N-[5-(4-phenyl-piperazin-1-yl)-2,4-bis-(piperidine-1-sulfonyl)-phenyl]ethane-1,2-diamine] | – | – | – | melting point: 116 to 118 °C |
| CCN(CCN(C)C)c1cc(NC2CCN(Cc3ccccc3)CC2)c(S(=O)(=O)N2CCCCC2)cc1S(=O)(=O)N1CCCCC1 [Example 65] | 292% | 314% | 177% | – |
| CCN(CCN(C)C)c1cc(NCCCCc2ccccc2)c(S(=O)(=O)N2CCCCC2)cc1S(=O)(=O)N1CCCCC1 [Example 70] | – | 238% | 194% | – |
| O=S(=O)(c1cc(S(=O)(=O)N2CCCCC2)c(NCc2cccc(Cl)c2)cc1NCCN1CCCC1)N1CCCCC1 [Example 84] | 199% | 223% | – | – |
| CCN(CCN(C)C)c1cc(NCCc2ccc(OC)c(OC)c2)c(S(=O)(=O)NCCc2cccs2)cc1S(=O)(=O)NCCc1cccs1 [Example 92] | 213% | 233% | – | – |
| CCN(CCN(C)C)c1cc(N2CCC(c3ccccc3)CC2)c(S(=O)(=O)NCCc2cccs2)cc1S(=O)(=O)NCCc1cccs1 [Example 93] | 293% | 337% | 213% | – |
| CCN(CCN(C)C)c1cc(N2CCN(c3ccccc3)CC2)c(S(=O)(=O)NCCc2cccs2)cc1S(=O)(=O)NCCc1cccs1 [Example 94] | 194% | 321% | – | – |
| O=S(=O)(NCCc1cccs1)c1cc(S(=O)(=O)NCCc2cccs2)c(NCc2cccc3ccccc23)cc1NCCN1CCCC1 [Example 95] | 267% | 301% | 198% | Relative change in the plasma lipid level: LDL cholesterol [2, 3]: −44%; Relative change in the plasma lipid level: Total cholesterol [2, 3]: −45%; Relative change in the plasma lipid level: Triglycerides [2, 3]: −61%; Relative change in the plasma lipid level: LDL cholesterol [2, 4]: −49%; Relative change in the plasma lipid level: Total cholesterol [2, 4]: −50%; Relative change in the plasma lipid level: Triglycerides [2, 4]: −73% |
| CCN(CCN(C)C)c1cc(N2CCN(c3ccccc3)CC2)c(S(=O)(=O)NCCCOC)cc1S(=O)(=O)NCCCOC [Example 96] | 278% | 326% | 138% | – |
| CN(C)CCNc1cc(NCc2ccc(Cl)c(Cl)c2)c(S(=O)(=O)N2CCCCC2)cc1S(=O)(=O)N1CCCCC1 [Example 98] | 249% | 285% | – | Relative change in the plasma lipid level: LDL cholesterol [2, 3]: −26%; Relative change in the plasma lipid level: Total cholesterol [2, 3]: −23%; Relative change in the plasma lipid level: Triglycerides [2, 3]: −27%; Relative change in the plasma lipid level: LDL cholesterol [2, 4]: −44%; Relative change in the plasma lipid level: Total cholesterol [2, 4]: −46%; Relative change in the plasma lipid level: Triglycerides [2, 4]: −68% |
| CN(C)CCNc1cc(NCc2cccc(Cl)c2)c(S(=O)(=O)N2CCCCC2)cc1S(=O)(=O)N1CCCCC1 [Example 99] | 247% | 322% | – | – |
| COCCCNS(=O)(=O)c1cc(S(=O)(=O)NCCCOC)c(N2CCN(c3ccccc3)CC2)cc1NCCN1CCCC1 [Example 102] | 239% | 298% | – | – |
| CN1CCN(c2cc(N3CC=C(c4ccccc4)CC3)c(S(=O)(=O)N(C)c3ccccc3)cc2S(=O)(=O)N(C)c2ccccc2)CC1 [Example 108] | 191% | 249% | – | – |
